Measured values taken from patent US5840684A, “Glycopeptide antibiotic derivatives” (Eli Lilly and Company, priority 1995, dated 1998).
In brackets after ≈: the same amount, converted by molar mass.

Tests used:
[1] = system: Streptococcus pneumoniae; test: mouse protection, experimentally-induced infection; assay type: in vivo; conditions: mice infected with Streptococcus pneumoniae, two doses
[2] = system: vancomycin-susceptible enterococci; test: broth micro-dilution, mean geometric MIC; assay type: cell-based, Enterococcus faecium and Enterococcus faecalis; conditions: enterococci, 24-hour incubation
[3] = system: vancomycin-resistant enterococci; test: broth micro-dilution, mean geometric MIC; assay type: cell-based, Enterococcus faecium and Enterococcus faecalis; conditions: enterococci, 24-hour incubation
[4] = system: Streptococcus pyogenes; test: mouse protection, experimentally-induced infection; assay type: in vivo; conditions: mice infected with Streptococcus pyogenes, two doses
[5] = system: Staphylococcus aureus S13E; assay type: cell-based
Method: (§1) The MIC's were determined using a standard broth micro-dilution assay.

[6] = system: Staphylococcus aureus SA1199B; assay type: cell-based
Method: as §1

[7] = system: Entercoccus faecium 2041; test: broth micro-dilution MIC; assay type: cell-based; conditions: Entercoccus faecium 2041
Method: (§2) The formula I compounds have in vitro and in vivo activity against Gram-positive pathogenic bacteria. The MIC's were determined using a standard broth micro-dilution assay.

[8] = system: Enterococcus gallinarum 245; test: broth micro-dilution MIC; assay type: cell-based; conditions: Enterococcus gallinarum 245
Method: as §2

[9] = system: Haemophilus influenzae RD; test: broth micro-dilution MIC; assay type: cell-based; conditions: Haemophilus influenzae RD
Method: as §2

[10] = system: Entercoccus faecium 180; test: broth micro-dilution MIC; assay type: cell-based; conditions: Entercoccus faecium 180
Method: as §2

[11] = system: Streptococcus pneumoniae P1; test: broth micro-dilution MIC; assay type: cell-based
Method: as §2

[12] = system: Staphylococcus haemolyticus 105; test: broth micro-dilution MIC; assay type: cell-based
Method: as §2

[13] = system: Staphylococcus haemolyticus 415; test: broth micro-dilution MIC; assay type: cell-based
Method: as §2

[14] = system: Staphylococcus aureus 491; test: broth micro-dilution MIC; assay type: cell-based
Method: as §1

[15] = system: Entercoccus faecium 180-1; test: broth micro-dilution MIC; assay type: cell-based
Method: as §1

[16] = system: Staphylococcus aureus 489; test: broth micro-dilution MIC; assay type: cell-based
Method: as §1

[17] = system: Streptococcus pyogenes C203; test: broth micro-dilution MIC; assay type: cell-based
Method: as §1

[18] = system: Staphylococcus aureus SA1199A; test: broth micro-dilution MIC; assay type: cell-based
Method: as §1

[19] = system: Entercoccus faecium 276; test: broth micro-dilution MIC; assay type: cell-based
Method: as §1

[20] = system: Staphylococcus aureus SA1199; test: broth micro-dilution MIC; assay type: cell-based
Method: as §1

[21] = system: Staphylococcus aureus X778; test: broth micro-dilution MIC; assay type: cell-based
Method: as §1

[22] = system: Staphylococcus aureus 446; test: broth micro-dilution MIC; assay type: cell-based
Method: as §1

[23] = system: Staphylococcus aureus X400; test: broth micro-dilution MIC; assay type: cell-based
Method: as §1

[24] = system: Staphylococcus epidermidis 270; test: broth micro-dilution MIC; assay type: cell-based
Method: as §2

[25] = system: Staphylococcus aureus 447; test: broth micro-dilution MIC; assay type: cell-based
Method: as §1

Compound | ED50 [1] [mg/kg/2] | mean geometric MIC, Vancomycin Sensitive Strains [2] [µg/mL] | mean geometric MIC, Vancomycin Resistant Strains [3] [µg/mL] | ED50 [4] [mg/kg/2] | MIC [5] [µg/mL] | MIC [6] [µg/mL] | MIC [7] [µg/mL] | MIC [8] [µg/mL] | MIC [9] [µg/mL] | MIC [10] [µg/mL] | MIC [11] [µg/mL] | MIC [12] [µg/mL] | MIC [13] [µg/mL] | MIC [14] [µg/mL] | MIC [15] [µg/mL] | MIC [17] [µg/mL] | MIC [19] [µg/mL] | MIC [21] [µg/mL] | MIC [24] [µg/mL] | MIC [25] [µg/mL] | other results
CNC(CC(C)C)C(=O)NC1C(=O)NC(CC(N)=O)C(=O)NC2C(=O)NC3C(=O)NC(C(=O)NC(C(=O)O)c4cc(O)cc(O)c4-c4cc3ccc4O)C(OC3CC(C)(N)C(O)C(C)O3)c3ccc(c(Cl)c3)Oc3cc2cc(c3OC2OC(CO)C(O)C(O)C2OC2CC(C)(NCc3ccc(Cc4ccccc4)c(OC)c3)C(O)C(C)O2)Oc2ccc(cc2Cl)C1O (stereo not drawn) [Compound 104] | 0.041 | 0.062 | 1.2 | 0.12 | ≤ 0.06 | 0.125 (≈ 0.0693 µM) | ≤ 0.06 | 2 (≈ 1.11 µM) | 32 (≈ 17.8 µM) | ≤ 0.06 | ≤ 0.06 | 2 (≈ 1.11 µM) | 2 (≈ 1.11 µM) | ≤ 0.06 | ≤ 0.06 | ≤ 0.06 | ≤ 0.06 | ≤ 0.06 | – | – | MIC [16]: ≤ 0.06 µg/mL; MIC [18]: ≤ 0.06 µg/mL; MIC [20]: 2 µg/mL (≈ 1.11 µM); MIC [22]: ≤ 0.06 µg/mL; MIC [23]: ≤ 0.06 µg/mL
CNC(CC(C)C)C(=O)NC1C(=O)NC(CC(N)=O)C(=O)NC2C(=O)NC3C(=O)NC(C(=O)NC(C(=O)O)c4cc(O)cc(O)c4-c4cc3ccc4O)C(OC3CC(C)(N)C(O)C(C)O3)c3ccc(c(Cl)c3)Oc3cc2cc(c3OC2OC(CO)C(O)C(O)C2OC2CC(C)(NCc3cccc(Oc4cccc(C(F)(F)F)c4)c3)C(O)C(C)O2)Oc2ccc(cc2Cl)C1O (stereo not drawn) [Compound 111] | 0.084 | 0.031 | 0.71 | 0.099 | 1 (≈ 0.543 µM) | 1 (≈ 0.543 µM) | ≤ 0.06 | 4 (≈ 2.17 µM) | – | ≤ 0.06 | ≤ 0.06 | 1 (≈ 0.543 µM) | 4 (≈ 2.17 µM) | 2 (≈ 1.09 µM) | ≤ 0.06 | ≤ 0.06 | 0.5 (≈ 0.271 µM) | 2 (≈ 1.09 µM) | 1 (≈ 0.543 µM) | 1 (≈ 0.543 µM) | MIC [16]: 1 µg/mL (≈ 0.543 µM); MIC [18]: 0.5 µg/mL (≈ 0.271 µM); MIC [20]: 2 µg/mL (≈ 1.09 µM); MIC [22]: 2 µg/mL (≈ 1.09 µM); MIC [23]: 1 µg/mL (≈ 0.543 µM)
CNC(CC(C)C)C(=O)NC1C(=O)NC(CC(N)=O)C(=O)NC2C(=O)NC3C(=O)NC(C(=O)NC(C(=O)O)c4cc(O)cc(O)c4-c4cc3ccc4O)C(OC3CC(C)(N)C(O)C(C)O3)c3ccc(c(Cl)c3)Oc3cc2cc(c3OC2OC(CO)C(O)C(O)C2OC2CC(C)(NCc3ccc(OC(F)(F)C(F)F)cc3)C(O)C(C)O2)Oc2ccc(cc2Cl)C1O (stereo not drawn) [Compound 121] | 0.047 | 0.063 | 1.0 | 0.041 | ≤ 0.06 | 0.25 (≈ 0.139 µM) | ≤ 0.06 | 2 (≈ 1.11 µM) | 16 (≈ 8.9 µM) | ≤ 0.06 | ≤ 0.06 | 2 (≈ 1.11 µM) | 2 (≈ 1.11 µM) | ≤ 0.06 | ≤ 0.06 | ≤ 0.06 | ≤ 0.06 | 0.5 (≈ 0.278 µM) | 1 (≈ 0.556 µM) | 0.5 (≈ 0.278 µM) | MIC [16]: 1 µg/mL (≈ 0.556 µM); MIC [18]: ≤ 0.06 µg/mL; MIC [20]: 1 µg/mL (≈ 0.556 µM); MIC [22]: 2 µg/mL (≈ 1.11 µM)
CNC(CC(C)C)C(=O)NC1C(=O)NC(CC(N)=O)C(=O)NC2C(=O)NC3C(=O)NC(C(=O)NC(C(=O)O)c4cc(O)cc(O)c4-c4cc3ccc4O)C(OC3CC(C)(N)C(O)C(C)O3)c3ccc(c(Cl)c3)Oc3cc2cc(c3OC2OC(CO)C(O)C(O)C2OC2CC(C)(NCc3cccc(OCC4CCCCC4)c3)C(O)C(C)O2)Oc2ccc(cc2Cl)C1O (stereo not drawn) [Compound 123] | 0.039 | 0.041 | 1.0 | 0.076 | ≤ 0.06 | 0.5 (≈ 0.279 µM) | ≤ 0.06 | 1 (≈ 0.557 µM) | 16 (≈ 8.91 µM) | 0.25 (≈ 0.139 µM) | ≤ 0.06 | 2 (≈ 1.11 µM) | 1 (≈ 0.557 µM) | ≤ 0.06 | ≤ 0.06 | ≤ 0.06 | 0.25 (≈ 0.139 µM) | 1 (≈ 0.557 µM) | 1 (≈ 0.557 µM) | 1 (≈ 0.557 µM) | MIC [16]: 2 µg/mL (≈ 1.11 µM); MIC [20]: 2 µg/mL (≈ 1.11 µM); MIC [22]: 2 µg/mL (≈ 1.11 µM); MIC [23]: 1 µg/mL (≈ 0.557 µM)
C=CCCCCCCCCCNC1(C)CC(OC2C(Oc3c4cc5cc3Oc3ccc(cc3Cl)C(OC3CC(C)(N)C(O)C(C)O3)C3NC(=O)C(NC(=O)C5NC(=O)C(CC(N)=O)NC(=O)C(NC(=O)C(CC(C)C)NC)C(O)c5ccc(c(Cl)c5)O4)c4ccc(O)c(c4)-c4c(O)cc(O)cc4C(C(=O)O)NC3=O)OC(CO)C(O)C2O)OC(C)C1O (stereo not drawn) [Compound 204] | 0.046 | 0.031 | 0.71 | < 0.031 | 0.5 (≈ 0.287 µM) | – | ≤ 0.06 | – | 2 (≈ 1.15 µM) | – | ≤ 0.06 | 0.5 (≈ 0.287 µM) | – | 0.5 (≈ 0.287 µM) | – | ≤ 0.06 | ≤ 0.06 | 0.5 (≈ 0.287 µM) | ≤ 0.06 | ≤ 0.06 | –
CNC(CC(C)C)C(=O)NC1C(=O)NC(CC(N)=O)C(=O)NC2C(=O)NC3C(=O)NC(C(=O)NC(C(=O)O)c4cc(O)cc(O)c4-c4cc3ccc4O)C(OC3CC(C)(N)C(O)C(C)O3)c3ccc(c(Cl)c3)Oc3cc2cc(c3OC2OC(CO)C(O)C(O)C2OC2CC(C)(NCc3ccc(-c4ccc(Br)cc4)cc3)C(O)C(C)O2)Oc2ccc(cc2Cl)C1O (stereo not drawn) [Compound 230] | 0.078 | 0.031 | 0.35 | 0.046 | 0.5 (≈ 0.272 µM) | – | ≤ 0.06 | 4 (≈ 2.18 µM) | 32 (≈ 17.4 µM) | ≤ 0.06 | ≤ 0.06 | 1 (≈ 0.544 µM) | 2 (≈ 1.09 µM) | – | ≤ 0.06 | ≤ 0.06 | ≤ 0.06 | – | 0.5 (≈ 0.272 µM) | 0.5 (≈ 0.272 µM) | MIC [18]: ≤ 0.06 µg/mL; MIC [23]: 0.5 µg/mL (≈ 0.272 µM)
